Measured values from the NIST ThermoML archive (doi:10.1021/je700140j).
± gives the expanded uncertainty stated by the source.

How the values were obtained:
[1] = xn = mol fraction of the nth substance listed; settings: x1 = 1; for surface tension liquid-gas: Ring tensiometer; for mass density / viscosity: 100.8 kPa, Liquid
[2] = refractive index (Na D-line) (dimensionless); xn = mol fraction of the nth substance listed; settings: 100.8 kPa, Liquid, Standard Abbe refractometry, x1 = 1
[3] = for surface tension liquid-gas: Ring tensiometer; for mass density / viscosity: 100.8 kPa, Liquid
[4] = refractive index (Na D-line) (dimensionless); settings: 101.33 kPa, Liquid, Standard Abbe refractometry

CC(C)O [propan-2-ol] + OCCc1ccccc1
Settings | mass density, [1] [kg/m3] | refractive index, [2] | surface tension liquid-gas, [1] [mN/m] | viscosity, [1] [mPa·s]
298.15 K | 781.17 ± 0.61 | 1.37507 ± 0.00033 | 20.85 ± 0.32 | 2.082 ± 0.028
308.15 K | 772.53 ± 0.63 | 1.37063 ± 0.00033 | 20.05 ± 0.31 | 1.55 ± 0.021
318.15 K | 763.52 ± 0.65 | 1.3661 ± 0.00033 | 19.35 ± 0.31 | 1.181 ± 0.016

OCc1ccccc1 [benzenemethanol] + OCCc1ccccc1
Settings | mass density, [1] [kg/m3] | refractive index, [2] | surface tension liquid-gas, [1] [mN/m] | viscosity, [1] [mPa·s]
298.15 K | 1041.4 ± 0.29 | 1.53843 ± 0.00033 | 38.63 ± 0.54 | 5.555 ± 0.071
308.15 K | 1033.6 ± 0.27 | 1.53421 ± 0.00033 | 37.73 ± 0.53 | 4.093 ± 0.054
318.15 K | 1025.72 ± 0.26 | 1.52994 ± 0.00033 | 36.75 ± 0.52 | 3.12 ± 0.041

OCCc1ccccc1 [2-phenylethanol]
Settings | mass density, [3] [kg/m3] | refractive index, [4] | surface tension liquid-gas, [3] [mN/m] | viscosity, [3] [mPa·s]
298.15 K | 1016.2 ± 0.39 | 1.53269 ± 0.00037 | 39.43 ± 0.58 | 11.4 ± 0.14
308.15 K | 1008.63 ± 0.37 | 1.52852 ± 0.00037 | 38.93 ± 0.57 | 7.518 ± 0.098
318.15 K | 1000.98 ± 0.36 | 1.52427 ± 0.00037 | 38.35 ± 0.56 | 5.232 ± 0.071

CC(C)O [propan-2-ol]
Settings | mass density, [3] [kg/m3] | refractive index, [4] | surface tension liquid-gas, [3] [mN/m] | viscosity, [3] [mPa·s]
298.15 K | 781.17 ± 0.61 | 1.37507 ± 0.00033 | 20.85 ± 0.32 | 2.082 ± 0.028
308.15 K | 772.53 ± 0.63 | 1.37063 ± 0.00033 | 20.05 ± 0.31 | 1.55 ± 0.021
318.15 K | 763.52 ± 0.65 | 1.3661 ± 0.00033 | 19.35 ± 0.31 | 1.181 ± 0.016

CC(C)O [propan-2-ol] + OCc1ccccc1
Settings | mass density, [1] [kg/m3] | refractive index, [2] | surface tension liquid-gas, [1] [mN/m] | viscosity, [1] [mPa·s]
298.15 K | 781.17 ± 0.61 | 1.37507 ± 0.00033 | 20.85 ± 0.32 | 2.082 ± 0.028
308.15 K | 772.53 ± 0.63 | 1.37063 ± 0.00033 | 20.05 ± 0.31 | 1.55 ± 0.021
318.15 K | 763.52 ± 0.65 | 1.3661 ± 0.00033 | 19.35 ± 0.31 | 1.181 ± 0.016

OCc1ccccc1 [benzenemethanol]
Settings | mass density, [3] [kg/m3] | refractive index, [4] | surface tension liquid-gas, [3] [mN/m] | viscosity, [3] [mPa·s]
298.15 K | 1041.4 ± 0.29 | 1.53843 ± 0.00033 | 38.63 ± 0.54 | 5.555 ± 0.071
308.15 K | 1033.6 ± 0.27 | 1.53421 ± 0.00033 | 37.73 ± 0.53 | 4.093 ± 0.054
318.15 K | 1025.72 ± 0.26 | 1.52994 ± 0.00033 | 36.75 ± 0.52 | 3.12 ± 0.041
